Active and inactive are the calls of the source. No cut-off for these calls is given here.
Key:
[1] = target: T1, 2-5A-dependent ribonuclease (Homo sapiens, UniProt Q05823); assay: Induction of recombinant human RNase L activity expressed in Escherichia coli using F-5'-r(C11U2C7)-3' as substrate by polyacrylamide gel electrophoresis
T1 sequence (Q05823 whole entry): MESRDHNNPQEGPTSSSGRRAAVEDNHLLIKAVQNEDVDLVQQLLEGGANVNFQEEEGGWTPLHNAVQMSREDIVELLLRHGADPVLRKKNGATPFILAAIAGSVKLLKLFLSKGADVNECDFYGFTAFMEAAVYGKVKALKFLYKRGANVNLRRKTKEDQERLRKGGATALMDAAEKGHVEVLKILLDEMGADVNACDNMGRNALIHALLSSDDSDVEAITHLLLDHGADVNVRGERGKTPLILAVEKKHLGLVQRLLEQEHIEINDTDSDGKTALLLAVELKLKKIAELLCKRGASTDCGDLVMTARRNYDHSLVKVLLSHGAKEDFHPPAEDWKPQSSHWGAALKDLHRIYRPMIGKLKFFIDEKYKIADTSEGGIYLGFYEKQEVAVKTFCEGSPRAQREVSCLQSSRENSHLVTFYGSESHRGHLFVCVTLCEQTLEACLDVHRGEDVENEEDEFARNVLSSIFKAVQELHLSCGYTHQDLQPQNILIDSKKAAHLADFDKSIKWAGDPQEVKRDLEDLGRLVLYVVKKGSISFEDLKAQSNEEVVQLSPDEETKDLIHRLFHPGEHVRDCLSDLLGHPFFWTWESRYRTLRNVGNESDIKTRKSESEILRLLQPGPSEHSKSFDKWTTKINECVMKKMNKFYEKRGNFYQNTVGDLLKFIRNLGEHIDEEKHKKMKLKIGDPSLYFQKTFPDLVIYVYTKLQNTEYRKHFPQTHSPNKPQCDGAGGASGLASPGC

[2] = target: T2, 2-5A-dependent ribonuclease (Homo sapiens) (UniProt Q05823); assay: Ratio of p5'A2'p5'A2'p5'A2'p5'A EC50 to compound EC50 for recombinant human RNase L activity
T2 sequence (whole entry): T1 sequence (Q05823 whole entry)

[3] = Half life of the compound assessed as snake venom phosphodiesterase-mediated compound hydrolysis at 9 uM by HPLC analysis; format: ADME; conditions: serpentes
HeLa [4] = assay: Cytotoxicity against human HeLa cells assessed as cell growth inhibition at 0.1 to 1 uM after 6 to 24 hrs by counting chamber analysis; format: functional, cell-based
HeLa [5] = assay: Cytotoxicity against human HeLa cells assessed as cell growth inhibition after 6 to 24 hrs by counting chamber analysis; format: functional, cell-based
HeLa [6] = assay: Cytotoxicity against human HeLa cells assessed as cell growth at 1 uM after 6 to 24 hrs by counting chamber analysis relative to control; format: functional; conditions: read-out: Activity

Row | SMILES | Ratio EC50 [2] | EC50 ([1]; read-out: EC50) [nM] | also measured
1 | Nc1ncnc2c1ncn2[C@@H]1O[C@H](COP(=O)(O)O[C@@H]2[C@H](O)[C@@H](COP(=O)(O)O[C@@H]3[C@H](O)[C@@H](COP(=O)(O)O[C@@H]4[C@H](O)[C@@H](CO)O[C@H]4n4cnc5c(N)ncnc54)O[C@H]3n3cnc4c(N)ncnc43)O[C@H]2n2cnc3c(N)ncnc32)[C@@H](O)[C@H]1O |  |  | EC50 [1]: Not Active
2 | Cc1nc2c(N)ncnc2n1[C@@H]1O[C@H](COP(=O)(O)O[C@@H]2[C@H](O)[C@@H](COP(=O)(O)O[C@@H]3[C@H](O)[C@@H](COP(=O)(O)O[C@H]4[C@@H](O)[C@H](n5cnc6c(N)ncnc65)O[C@@H]4CO)O[C@H]3n3cnc4c(N)ncnc43)O[C@H]2n2cnc3c(N)ncnc32)[C@@H](O)[C@H]1O | 0.64 | 20.3 | 
3 | Cc1nc2c(N)ncnc2n1[C@@H]1O[C@H](COP(=O)(O)O[C@@H]2[C@H](O)[C@@H](COP(=O)(O)O[C@@H]3[C@H](O)[C@@H](COP(=O)(O)O[C@H]4[C@@H](O)[C@H](n5ccc(=O)[nH]c5=O)O[C@@H]4CO)O[C@H]3n3cnc4c(N)ncnc43)O[C@H]2n2cnc3c(N)ncnc32)[C@@H](O)[C@H]1O | 0.1 | 134 | 
4 | Nc1ncnc2c1ncn2[C@@H]1O[C@H](COP(=O)(O)O[C@@H]2[C@H](O)[C@@H](COP(=O)(O)O[C@@H]3[C@H](O)[C@@H](COP(=O)(O)O[C@@H]4[C@H](O)[C@@H](COP(=O)(O)O)O[C@H]4n4ccc(=O)[nH]c4=O)O[C@H]3n3cnc4c(N)ncnc43)O[C@H]2n2cnc3c(N)ncnc32)[C@@H](O)[C@H]1O | 0.15 | 84 | 
5 | Nc1ncnc2c1ncn2[C@@H]1O[C@H](COP(=O)(O)O[C@@H]2[C@H](O)[C@@H](COP(=O)(O)O[C@@H]3[C@H](O)[C@@H](COP(=O)(O)O[C@@H]4[C@H](O)[C@@H](COP(=O)(O)O)O[C@H]4n4cnc5c(N)ncnc54)O[C@H]3n3cnc4c(N)ncnc43)O[C@H]2n2cnc3c(N)ncnc32)[C@@H](O)[C@H]1O |  | 12.9 | half-life at 9 µM [3]: 6.4 min; growth inhibition (GI) (HeLa [4]): inactive
6 | C[C@H]1O[C@@H](n2cc(F)c(=O)[nH]c2=O)[C@H](O)[C@@H]1O |  |  | growth inhibition (GI) (HeLa [5]): Dose-dependent effect
7 | Cc1nc2c(N)ncnc2n1[C@@H]1O[C@H](COP(=O)(O)O[C@@H]2[C@H](O)[C@@H](COP(=O)(O)O[C@@H]3[C@H](O)[C@@H](COP(=O)(O)O[C@@H]4[C@H](O)[C@@H](CO)O[C@H]4n4cnc5c(N)ncnc54)O[C@H]3n3cnc4c(N)ncnc43)O[C@H]2n2cnc3c(N)ncnc32)[C@@H](O)[C@H]1O | 5.6 | 2.3 | 
8 | Cc1nc2c(N)ncnc2n1[C@@H]1O[C@H](COP(=O)(O)O[C@@H]2[C@H](O)[C@@H](COP(=O)(O)O[C@@H]3[C@H](O)[C@@H](COP(=O)(O)O[C@@H]4[C@H](O)[C@@H](COP(=O)(O)O)O[C@H]4n4ccc(=O)[nH]c4=O)O[C@H]3n3cnc4c(N)ncnc43)O[C@H]2n2cnc3c(N)ncnc32)[C@@H](O)[C@H]1O | 4.8 | 2.7 | 
9 | Cc1nc2c(N)ncnc2n1[C@@H]1O[C@H](COP(=O)(O)O[C@@H]2[C@H](O)[C@@H](COP(=O)(O)O[C@@H]3[C@H](O)[C@@H](COP(=O)(O)O[C@@H]4[C@H](O)[C@@H](CO)O[C@H]4n4ccc(=O)[nH]c4=O)O[C@H]3n3cnc4c(N)ncnc43)O[C@H]2n2cnc3c(N)ncnc32)[C@@H](O)[C@H]1O | 5.4 | 2.4 | 
10 | Cc1nc2c(N)ncnc2n1[C@@H]1O[C@H](COP(=O)(O)O[C@@H]2[C@H](O)[C@@H](COP(=O)(O)O[C@@H]3[C@H](O)[C@@H](COP(=O)(O)O[C@@H]4[C@H](O)[C@@H](C)O[C@H]4n4cc(F)c(=O)[nH]c4=O)O[C@H]3n3cnc4c(N)ncnc43)O[C@H]2n2cnc3c(N)ncnc32)[C@@H](O)[C@H]1O | 28.9 | 0.45 | half-life at 9 µM [3]: 9 min; growth at 1 µM (HeLa [6]): 25%; growth inhibition (GI) (HeLa [5]): Dose-dependent effect
